Experimental data: patent US7955425B2, “Ink composition for ink jet recording” (Seiko Epson Corporation, priority 2008, dated 2011)

Assays:
[1] = Surface tension of aqueous solution; type: physicochemical
[2] = Evaluation of solubility of poorly water-soluble alkane diol; type: physicochemical; conditions: for Ability to dissolve 1,2-octanediol: two-component aqueous alcohol solution with 10% by weight 1,2-octanediol and 10% by weight 1,2-hexanediol, FIG. 1
Protocol: An aqueous solution containing 10% by weight of 1,2-octanediol was prepared using 1,2-octanediol as a poorly water-soluble alkane diol.
Five alcohol solvents, 1,6-hexanediol (hereinafter referred to as 1,6-HED), 3-methyl-1,5-pentanediol (hereinafter referred to as 3 MPED), 1,5-pentanediol (hereinafter referred to as 1,5-PED), 1,2-hexanediol (hereinafter referred to as HED), and 2,2′-dimethylpropanediol (hereinafter referred to as 2 MPRD) were added to 10 g of the aqueous solution until the aqueous solution became transparent.
In place of the aqueous solution described above, an aqueous solution that contains 10% by weight of 1,2-octanediol as the poorly water-soluble alkane diol and 10% by weight of 1,2-hexanediol as the water-soluble 1,2-alkane diol was prepared, and the alcohol solvents were added to the aqueous solution until the aqueous solution became transparent, as described above.

SMILES	surface tension ([1]; 15% aqueous solution) [mN/m]	Ability to dissolve 1,2-octanediol [2]	further results
CC(C)(C)C(O)CO (stereo not shown) [3,3-dimethyl-1,2-butanediol]	26.1	–	–
CC(C)CC(O)CO (stereo not shown) [4-methyl 1,2-pentanediol]	25.4	–	–
CC(C)(CO)CO [2 MPRD, 2,2′-dimethylpropanediol]	–	higher ability to dissolve 1,2-octanediol than the addition of HED alone	–
CC(CO)CO [2-methyl-1,3-propanediol]	–	–	surface tension ([1]; 10% aqueous solution): 57.5 mN/m
CC(CCO)CCO [3-methyl-1,5-butanediol]	–	–	surface tension ([1]; 10% aqueous solution): 45.8 mN/m
OCCCCCO [1,5-PED, 1,5-pentanediol]	–	higher ability to dissolve 1,2-octanediol than the addition of HED alone	–
OCCCCCCO [1,6-HED, 1,6-hexanediol]	–	higher ability to dissolve 1,2-octanediol than the addition of HED alone	–
CC(CCO)CCO [3 MPED, 3-methyl-1,5-pentanediol]	–	higher ability to dissolve 1,2-octanediol than the addition of HED alone	–
CCCCCCC(O)CO (stereo not shown) [1,2-octanediol]	–	–	Solubility of 1,2-octanediol in water ([2]; aqueous solution containing 10% by weight of 1,2-octanediol): incompletely dissolved
CCCCC(O)CO (stereo not shown) [1,2-hexanediol]	26.7	–	–
